Reference: US9890126B2 (priority 2012, dated 2018)
Marks after values point to notes of the source that are not given here.

molecular target: IspF (Burkholderia pseudomallei, UniProt Q3JRA0); assay: biochemical; assay type: binding; details: not given
Sequence (Q3JRA0 whole entry, looked up): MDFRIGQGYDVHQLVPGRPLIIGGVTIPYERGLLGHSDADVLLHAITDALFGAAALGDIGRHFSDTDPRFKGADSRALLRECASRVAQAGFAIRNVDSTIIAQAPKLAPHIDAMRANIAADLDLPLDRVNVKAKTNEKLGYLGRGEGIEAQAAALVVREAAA

Row | SMILES | Kd [µM]
1 | Nc1ccn([C@@H]2O[C@H](CNC(=O)c3ccncc3)[C@@H](O)[C@H]2O)c(=O)n1 [HGN-0005] | 176
2 | Oc1ccc(CCn2cncc2-c2ccc(O)cc2)cc1 [HGN-0048] | 486
3 | Oc1ccc(-c2cncn2Cc2ccco2)cc1 [HGN-0019] | 380

same assay, conditions: pH 7.4

Row | SMILES | Kd
4 | CC(c1ccccc1)C(O)c1nccn1-c1ccccc1 (stereo not drawn) [HGN-0062] | no binding
5 | O=C([O-])c1cnc(Nc2ccc3cn[nH]c3c2)nc1[O-].[Na+].[Na+] [HGN-0045, Sodium 2-((1H-indazol-6-yl)amino)-4-oxoidopyrimidine-5-carboxylate] | non specific
6 | OC(Cn1cnc(-c2ccccc2)c1-c1ccccc1)c1ccccc1 (stereo not drawn) [HGN-0060] | not soluble
7 | CCOC(=O)c1cnc(Nc2ccc3cn[nH]c3c2)[nH]c1=O [HGN-0040, Ethyl 2-((1H-indazol-6-yl)amino)-6-oxo-1,6-dihydropyrimidine-5-carboxylate] | no binding
8 | CC(C)n1cncc1-c1ccc(O)cc1 [HGN-0018] | no binding
9 | CCOC(=O)c1cnc(Nc2cccc(-c3ccccc3)c2)[nH]c1=O [HGN-0039] | non specific
10 | CCOC(=O)c1cnc(NCCc2ccc(Cl)cc2)[nH]c1=O [HGN-0038, Ethyl 2-((4-chlorophenethyl)amino)-6-oxo-1,6-dihydropyrimidine-5-carboxylate] | not soluble
11 | CCOC(=O)c1cnc(Nc2ccc(N3CCOCC3)cc2)[nH]c1=O [HGN-0037] | not soluble
12 | Oc1ccc(-c2cncn2CCc2ccccc2)cc1 [HGN-0052] | no binding
13 | NC(=O)c1c[nH]nc1NC(=O)c1c[nH]c2ncccc12 [HGN-0002] | not soluble
14 | Oc1ccc(-n2ccnc2)cc1 [HGN-0056] | no binding
15 | Cn1ccnc1C(O)Cc1ccccc1 (stereo not drawn) [HGN-0061] | no binding

tested on: Burkholderia; assay: not given; details: cells printing symbol L

Row | SMILES | % Growth Inhibition Endpoint (24 h)
16 | Oc1ccc(-c2cncn2CCc2ccccc2Cl)cc1 [HGN-0096] | L^c
17 | Oc1ccc(-c2cncn2CCc2cccc(Cl)c2)cc1 [HGN-0108] | L^c
18 | Oc1ccc(-c2cncn2Cc2ccc(Cl)cc2)cc1 [HGN-0094] | L^c
19 | Oc1ccc(-c2cncn2CCc2ccc(Cl)c(Cl)c2)cc1 [HGN-0100] | L^c
20 | CCOC(=O)c1cnc(Nc2ccc(N3CCOCC3)cc2)[nH]c1=O [HGN-0037] | L^c
21 | Oc1ccc(-c2cncn2Cc2ccccc2Cl)cc1 [HGN-0091] | L^c
22 | Oc1ccc(-c2cncn2Cc2cccc(Cl)c2)cc1 [HGN-0090] | L^c

same assay, conditions: concentration not given

Row | SMILES | inhibition against Burkholderia [%]
23 | Oc1ccc(-c2cncn2CCc2ccc(F)cc2)cc1 [HGN-0095] | 88.3

same assay, conditions: relative to DMSO control; 0.00 = growth with inhibitor equal to or greater than DMSO control

Row | SMILES | % Growth Inhibition Endpoint (24 h) | % Growth Inhibition Growth Curve
24 | Nc1ccn([C@@H]2O[C@H](CNC(=O)Cc3cn4ccsc4n3)[C@@H](O)[C@H]2O)c(=O)n1 [HGN-0102] | 0.00^b % | –
25 | Oc1ccc(-c2cncn2CCc2ccc(Cl)cc2Cl)cc1 [HGN-0099] | 0.00^b % | –
26 | CCOC(=O)c1cnc(NCCc2ccc(F)cc2)[nH]c1=O [HGN-0111] | 31.31 ± 39.32% | –
27 | Nc1ccn([C@@H]2O[C@H](CNC(=O)c3ccnc4nc[nH]c34)[C@@H](O)[C@H]2O)c(=O)n1 [HGN-0007] | 0.00^b % | –
28 | O=C([O-])c1cnc(Nc2cccc(-c3ccccc3)c2)nc1[O-].[Na+].[Na+] [HGN-0044, Sodium 2-([1,1′-biphenyl]-3-ylamino)-4-oxidopyrimidine-5-carboxylate] | 1.48 ± 7.90% | –
29 | O=C([O-])c1cnc(Nc2ccc3cn[nH]c3c2)nc1[O-].[Na+].[Na+] [HGN-0045, Sodium 2-((1H-indazol-6-yl)amino)-4-oxoidopyrimidine-5-carboxylate] | 0.00^b % | –
30 | O=C([O-])c1cnc(NCc2ccc(Cl)c(Cl)c2)nc1[O-].[Na+].[Na+] [HGN-0130] | 45.59 ± 2.35% | –
31 | O=C([O-])c1cnc(NCCc2ccc(Cl)c(Cl)c2)nc1[O-].[Na+].[Na+] [HGN-0132] | 72.24 ± 11.83% | –
32 | Oc1ccc(-c2cncn2CCc2ccccc2)cc1 [HGN-0022] | 0.00^b % | –
33 | CCOC(=O)c1cnc(Nc2ccc(N3CCCCC3)cc2)[nH]c1=O [HGN-0034, ethyl 6-oxo-2-((4-(piperidin-1-yl)phenyl)amino)-1,6-dihydropyrimidine-5-carboxylate] | 86.20 ± 0.16% | –
34 | O=C([O-])c1cnc(NCc2cccc(Cl)c2)nc1[O-].[Na+].[Na+] [HGN-0124] | 30.67 ± 2.67% | –
35 | Cn1cncc1C(O)c1ccccc1 (stereo not drawn) [HGN-0031] | – | 0.00^b %
36 | CCOC(=O)c1cnc(NCCc2ccccc2Cl)[nH]c1=O [HGN-0119] | 0.00^b % | –
37 | O=C([O-])c1cnc(NCc2ccccc2F)nc1[O-].[Na+].[Na+] [HGN-0134] | 26.05 ± 6.37% | –
38 | CCOC(=O)c1cnc(NCC2CCCO2)[nH]c1=O (stereo not drawn) [HGN-0017, ethyl 6-oxo-2-(((tetrahydrofuran-2-yl)methyl)amino)-1,6-dihydropyrimidine-5-carboxylate] | – | 0.00^b %
39 | Oc1ccc(-c2cncn2CCc2ccccc2F)cc1 [HGN-0107] | 2.75 ± 2.62% | –
40 | CCOC(=O)c1cnc(Nc2ccc3cn[nH]c3c2)[nH]c1=O [HGN-0040, Ethyl 2-((1H-indazol-6-yl)amino)-6-oxo-1,6-dihydropyrimidine-5-carboxylate] | 16.39 ± 6.29% | –
41 | O=C([O-])c1cnc(NCc2ccc(Cl)cc2)nc1[O-].[Na+].[Na+] [HGN-0126] | 34.34 ± 3.24% | –
42 | CCOC(=O)c1cnc(NCc2ccc(Cl)cc2)[nH]c1=O [HGN-0125] | 23.89 ± 36.14% | –
43 | Nc1ccn([C@@H]2O[C@H](CNC(=O)c3ccncc3)[C@@H](O)[C@H]2O)c(=O)n1 [HGN-0005] | – | 0.00^b %

Row | SMILES | % Growth Inhibition Endpoint (24 h) | % Growth Inhibition Growth Curve
44 | NC(=O)c1c[nH]nc1NC(=O)c1cnc2sccn12 [HGN-0010] | 7.22 ± 4.24% | –
45 | CCOC(=O)c1cnc(Nc2cccc(-c3ccccc3)c2)[nH]c1=O [HGN-0039] | 0.00^b % | –
46 | Oc1ccc(-c2cncn2Cc2ccc(F)cc2)cc1 [HGN-0093] | 58.12 ± 2.17% | –
47 | CCOC(=O)c1cnc(NCCc2ccc(Cl)cc2)[nH]c1=O [HGN-0038, Ethyl 2-((4-chlorophenethyl)amino)-6-oxo-1,6-dihydropyrimidine-5-carboxylate] | 0.00^b % | –
48 | CCOC(=O)c1cnc(NCc2ccccc2Cl)[nH]c1=O [HGN-0121] | 0.00^b % | –
49 | CCOC(=O)c1cnc(NCCc2ccc(Cl)c(Cl)c2)[nH]c1=O [HGN-0131] | 0.00^b % | –
50 | CCOC(=O)c1cnc(Nc2ccc(-c3ccccc3)cc2)[nH]c1=O [HGN-0033, ethyl 2-((1,1′-biphenyl)-4-ylamino)-6-oxo-1,6-dihydropyrimidine-5-carboxylate] | 5.07 ± 2.01% | –
51 | Nc1ccn([C@@H]2O[C@H](CNC(=O)c3cscn3)[C@@H](O)[C@H]2O)c(=O)n1 [HGN-0008] | 0.00^b % | –
52 | Oc1ccc(-c2cncn2Cc2ccc(Cl)c(Cl)c2)cc1 [HGN-0092] | 25.41 ± 2.79% | –
53 | CCOC(=O)c1cnc(NCc2cccc(Cl)c2)[nH]c1=O [HGN-0123] | 0.00^b % | –
54 | CCOC(=O)c1cnc(NCc2ccccc2F)[nH]c1=O [HGN-0133] | 0.00^b % | –
55 | O=C([O-])c1cnc(Nc2ccc(Br)cc2)nc1[O-].[Na+].[Na+] [HGN-0014] | 15.52 ± 0.41% | –
56 | NC(=O)c1c[nH]nc1NC(=O)c1cncs1 [HGN-0004] | 0.00^b % | –
57 | O=C([O-])c1cnc(NCc2ccccc2Cl)nc1[O-].[Na+].[Na+] [HGN-0122] | 23.02 ± 8.79% | –
58 | Nc1ccn([C@@H]2O[C@H](CNC(=O)c3cn4ccsc4n3)[C@@H](O)[C@H]2O)c(=O)n1 [HGN-0006] | 0.00^b % | –
59 | CCOC(=O)c1cnc(NCc2ccc(Cl)c(Cl)c2)[nH]c1=O [HGN-0129] | 64.42 ± 2.77% | –
60 | COc1cc(-c2cncn2CCc2c[nH]c3ccccc23)ccc1O [HGN-0137] | 0.00^b % | –
61 | O=C([O-])c1cnc(NCCc2cccc(F)c2)nc1[O-].[Na+].[Na+] [HGN-0116] | 20.46 ± 3.47% | –
62 | O=C([O-])c1cnc(NCc2ccc(F)cc2)nc1[O-].[Na+].[Na+] [HGN-0114] | 5.94 ± 5.46% | –
63 | Oc1ccc(-c2cncn2CCc2c(Cl)cccc2Cl)cc1 [HGN0098] | 0.00^b % | –

Row | SMILES | % Growth Inhibition Endpoint (24 h) | % Growth Inhibition Growth Curve
64 | CCOC(=O)c1cnc(NCc2cc(Cl)ccc2Cl)[nH]c1=O [HGN-0127] | 3.47 ± 2.20% | –
65 | O=C([O-])c1cnc(NCC2CCCO2)nc1[O-].[Na+].[Na+] (stereo not drawn) [HGN-0050] | 32.99 ± 9.22% | –
66 | O=C([O-])c1cnc(NCCc2ccccc2Cl)nc1[O-].[Na+].[Na+] [HGN-0120] | 80.30 ± 0.40% | –
67 | Oc1ccc(-c2cncn2CCc2cccc(F)c2)cc1 [HGN-0097] | 4.27 ± 14.54% | –
68 | O=C([O-])c1cnc(NCCc2c(Cl)cccc2Cl)nc1[O-].[Na+].[Na+] [HGN-0136] | 16.71 ± 5.04% | –
69 | CCOC(=O)c1cnc(NCCc2cccc(F)c2)[nH]c1=O [HGN-0115] | 0.00^b % | –
70 | CCOC(=O)c1cnc(NCCc2c(Cl)cccc2Cl)[nH]c1=O [HGN-0135] | 0.00^b % | –
71 | CCOC(=O)c1cnc(NCc2ccc(F)cc2)[nH]c1=O [HGN-0113] | 0.00^b % | –
72 | Oc1ccc(-c2cncn2CCc2ccc(F)cc2)cc1 [HGN-0095] | 88.27 ± 0.48% | –
73 | O=C([O-])c1cnc(NCCc2ccc(F)cc2)nc1[O-].[Na+].[Na+] [HGN-0112] | 19.82 ± 16.53% | –
74 | Oc1ccc(-c2cncn2Cc2ccccc2F)cc1 [HGN-0106] | 33.79 ± 16.09% | –
75 | CCOC(=O)c1cnc(NCc2ccco2)[nH]c1=O [HGN-0047, Ethyl 2-((furan-2-ylmethyl)amino)-6-oxo-1,6-diydropyrimidine-5-carboxylate] | 0.00^b % | –
76 | Oc1ccc(-c2cncn2Cc2cccc(F)c2)cc1 [HGN-0109] | 24.77 ± 10.79% | –
77 | CCOC(=O)c1cnc(Nc2ccc(-c3ccncc3)cc2)[nH]c1=O [HGN-0015] | – | 14.43 ± 2.38%
78 | O=C([O-])c1cnc(Nc2ccc(N3CCCCC3)cc2)nc1[O-].[Na+].[Na+] [HGN-0036] | 22.38 ± 21.24% | –
79 | NC(=O)c1c[nH]nc1NC(=O)Cc1cn2ccsc2n1 [HGN-0009] | 0.00^b % | –
80 | CCOC(=O)c1cnc(NCCc2ccc(Cl)cc2Cl)[nH]c1=O [HGN-0117] | 0.00^b % | –
81 | O=C([O-])c1cnc(NCc2cc(Cl)ccc2Cl)nc1[O-].[Na+].[Na+] [HGN-0128] | 37.46 ± 0.21% | –
